Results reported in patent US12083115B2, “Methods for treating neurological symptoms associated with lysosomal storage diseases” (Genzyme Corporation, priority 2020, dated 2024).
Where two headings read alike, the source gives them in different places.

How the values were obtained:
[1] = Study 1 Part 1: ascending single-dose PK in healthy men; assay type: in vivo, human; conditions: for half-life / Tmax / AUC(0-inf) / AUC(0-t) / Cmax / Vd/F: male, human, plasma
Description: Study 1 was a 2-part single-center trial in healthy adult male volunteers.
Part 1 of the study enrolled and randomized 55 healthy men (placebo, n=14; 2-, 5-, 15, 25-, 50, and 100-mg doses, n=6 each; 150-mg dose, n=5). Eight healthy men participated in Part 2. […]

[2] = system: adult patients with Gaucher disease Type 3; assay: Clinical study in GD-3 patients: resting-state fMRI connectivity; assay type: in vivo, human
Protocol: During the study patients were evaluated for safety and tolerability, CSF and plasma biomarkers (glucosylceramide, GL-1; glucosylsphingosine, lyso-GL1), pharmacokinetics, markers for systemic disease (spleen and liver volume measured by magnetic resonance imaging (MRI), platelet count, hemoglobin levels), indicia of interstitial lung disease (high resolution pulmonary computed tomography (CT)), and horizontal saccadic eye movement. In addition, exploratory biomarkers were quantified in CSF of GD3 patients: ceramide (the precursor of GL-1), chitotriosidase (CHITO), GM3, and GPNMB. Symptoms of ataxia were measured using the SARA scale, neurological symptoms were measured using the trail making test, and functional MRI was used to assess neural connectivity in the brain.
Neurological function was further evaluated using functional magnetic resonance imaging (fMRI). Patient 2 was excluded because no fMRI data was collected at the Week 52 session. Resting-state fMRI screening sessions were performed at baseline screening, Week 26, and Week 52 visits. Connectivity estimates from four subjects (Patients 1, 3, 4, and […]) were entered into second-level analyses as a “compliant” group. Patient 5 was isolated due to likely non-compliance with study medication, as described above. Analyses were performed as described elsewhere (Smith et al. [2009]).
Spatial analysis of the connectivity between different anatomic regions of the brain is performed to define a correlation coefficient for regressed voxelwise mean intensity.
The results are summarized in the table below for all patients for RSNs 3 and 6 (RSNs 4 and 8 are not included) for the change in correlation coefficient between baseline and 52 weeks (as noted supra, Patient 2 is excluded because of lack of data).

Question: For `CC(C)(NC(=O)O[C@@H]1CN2CCC1CC2)c1csc(-c2ccc(F)cc2)n1` [Compound 2, (S)-quinuclidin-3-yl 2-(2-(4-fluorophenyl)thiazol-4-yl)propan-2-ylcarbamate], which half-life ([1]; oral, 25 mg, 25 mg single dose, N = 6, read-out: t1/2, Mean (SD) (converted)) is on record?
Answer: 1810 min

Question: And the Tmax ([1]; oral, 50 mg single dose, N = 6, read-out: tmax, median)?
Answer: 4 h

Question: And the AUC(0-inf) ([1]; oral, 50 mg, 50 mg single dose, N = 6, read-out: AUCinf, Geometric mean (CV))?
Answer: 6800 ng·h/mL

Question: And the AUC(0-inf) ([1]; oral, 50 mg, 50 mg single dose, N = 6, read-out: AUCinf, Mean (SD))?
Answer: 7130 ng·h/mL

Question: And the AUC(0-t) ([1]; oral, 50 mg, 50 mg single dose, N = 6, read-out: AUClast, Geometric mean (CV))?
Answer: 6070 ng·h/mL

Question: And the AUC(0-t) ([1]; oral, 50 mg, 50 mg single dose, N = 6, read-out: AUClast, Mean (SD))?
Answer: 6310 ng·h/mL

Question: What about the Cmax ([1]; oral, 50 mg, 50 mg single dose, N = 6, read-out: Cmax, Geometric mean (CV)) of the same compound?
Answer: 173 ng/mL

Question: What about the Cmax ([1]; oral, 50 mg, 50 mg single dose, N = 6, read-out: Cmax, Mean (SD)) of the same compound?
Answer: 181 ng/mL

Question: What about the Vd/F ([1]; oral, 50 mg, 50 mg single dose, N = 6, read-out: Vss/F, Geometric mean (CV)) of the same compound?
Answer: 232 L

Question: And the Vd/F ([1]; oral, 50 mg, 50 mg single dose, N = 6, read-out: Vss/F, Mean (SD))?
Answer: 239 L

Question: And the half-life ([1]; oral, 50 mg, 50 mg single dose, N = 6, read-out: t1/2, Geometric mean (CV) (converted))?
Answer: 1710 min

Question: What about the half-life ([1]; oral, 50 mg, 50 mg single dose, N = 6, read-out: t1/2, Mean (SD) (converted)) of the same compound?
Answer: 1730 min

Question: What about the AUC(0-inf) ([1]; oral, 100 mg, 100 mg single dose, N = 6, read-out: AUCinf, Geometric mean (CV)) of the same compound?
Answer: 14100 ng·h/mL

Question: And the AUC(0-inf) ([1]; oral, 100 mg, 100 mg single dose, N = 6, read-out: AUCinf, Mean (SD))?
Answer: 14400 ng·h/mL

Question: What about the AUC(0-t) ([1]; oral, 100 mg, 100 mg single dose, N = 6, read-out: AUClast, Geometric mean (CV)) of the same compound?
Answer: 12800 ng·h/mL

Question: And the AUC(0-t) ([1]; oral, 100 mg, 100 mg single dose, N = 6, read-out: AUClast, Mean (SD))?
Answer: 13000 ng·h/mL

Question: And the Cmax ([1]; oral, 100 mg, 100 mg single dose, N = 6, read-out: Cmax, Geometric mean (CV))?
Answer: 372 ng/mL

Question: What about the Cmax ([1]; oral, 100 mg, 100 mg single dose, N = 6, read-out: Cmax, Mean (SD)) of the same compound?
Answer: 374 ng/mL

Question: And the Vd/F ([1]; oral, 100 mg, 100 mg single dose, N = 6, read-out: Vss/F, Geometric mean (CV))?
Answer: 212 L

Question: What about the Vd/F ([1]; oral, 100 mg, 100 mg single dose, N = 6, read-out: Vss/F, Mean (SD)) of the same compound?
Answer: 213 L

Question: And the half-life ([1]; oral, 100 mg, 100 mg single dose, N = 6, read-out: t1/2, Geometric mean (CV) (converted))?
Answer: 1660 min

Question: And the half-life ([1]; oral, 100 mg, 100 mg single dose, N = 6, read-out: t1/2, Mean (SD) (converted))?
Answer: 1670 min

Question: And the Tmax ([1]; oral, 150 mg single dose, N = 5, read-out: tmax, median)?
Answer: 4 h

Question: And the AUC(0-inf) ([1]; oral, 150 mg, 150 mg single dose, N = 5, read-out: AUCinf, Geometric mean (CV))?
Answer: 19900 ng·h/mL

Question: What about the AUC(0-inf) ([1]; oral, 150 mg, 150 mg single dose, N = 5, read-out: AUCinf, Mean (SD)) of the same compound?
Answer: 20600 ng·h/mL

Question: And the AUC(0-t) ([1]; oral, 150 mg, 150 mg single dose, N = 5, read-out: AUClast, Geometric mean (CV))?
Answer: 18000 ng·h/mL

Question: And the AUC(0-t) ([1]; oral, 150 mg, 150 mg single dose, N = 5, read-out: AUClast, Mean (SD))?
Answer: 18600 ng·h/mL

Question: What about the Cmax ([1]; oral, 150 mg, 150 mg single dose, N = 5, read-out: Cmax, Geometric mean (CV)) of the same compound?
Answer: 520 ng/mL

Question: What about the Cmax ([1]; oral, 150 mg, 150 mg single dose, N = 5, read-out: Cmax, Mean (SD)) of the same compound?
Answer: 529 ng/mL

Question: And the Vd/F ([1]; oral, 150 mg, 150 mg single dose, N = 5, read-out: Vss/F, Geometric mean (CV))?
Answer: 223 L

Question: What about the Vd/F ([1]; oral, 150 mg, 150 mg single dose, N = 5, read-out: Vss/F, Mean (SD)) of the same compound?
Answer: 228 L

Question: What about the half-life ([1]; oral, 150 mg, 150 mg single dose, N = 5, read-out: t1/2, Geometric mean (CV) (converted)) of the same compound?
Answer: 1580 min

Question: What about the half-life ([1]; oral, 150 mg, 150 mg single dose, N = 5, read-out: t1/2, Mean (SD) (converted)) of the same compound?
Answer: 1610 min

Question: And the half-life ([1]; po, single oral doses of 2 to 150 mg, read-out: geometric mean t1/2 (converted))?
Answer: 1730 min

Question: And the “median time of Cmax” value ([1]; single oral doses of 2 to 150 mg)?
Answer: 3 to 5.5 h

Question: And the “Change in Correlation Coefficient” value ([2]; Patient 1, RSNs 3 and 6, baseline to 52 weeks)?
Answer: 0.359

Question: What about the “Change in Correlation Coefficient” value ([2]; Patient 1, default mode (resting) network vs executive function network, first interim analysis) of the same compound?
Answer: +0.20

Question: And the “Change in Correlation Coefficient” value ([2]; Patient 3, RSNs 3 and 6, baseline to 52 weeks)?
Answer: 0.383

Question: And the “Change in Correlation Coefficient” value ([2]; Patient 3, default mode (resting) network vs executive function network, first interim analysis)?
Answer: +0.20

Question: What about the “Change in Correlation Coefficient” value ([2]; Patient 4, RSNs 3 and 6, baseline to 52 weeks) of the same compound?
Answer: 0.201

Question: And the “Change in Correlation Coefficient” value ([2]; Patient 4, default mode (resting) network vs executive function network, first interim analysis)?
Answer: +0.20

Question: And the “Change in Correlation Coefficient” value ([2]; Patient 5 (insufficient Compound 2 exposure), RSNs 3 and 6, baseline to 52 weeks)?
Answer: −0.173

Question: What about the “Change in Correlation Coefficient” value ([2]; Patient 5 (likely non-compliance), default mode (resting) network vs executive function network, first interim analysis) of the same compound?
Answer: −0.13

Question: What about the “Change in Correlation Coefficient” value ([2]; Patient 6, RSNs 3 and 6, baseline to 52 weeks) of the same compound?
Answer: 0.779

Question: What about the “Change in Correlation Coefficient” value ([2]; Patient 6, default mode (resting) network vs executive function network, first interim analysis) of the same compound?
Answer: +0.70

Question: What about the “Change in Correlation Coefficient” value ([2]; Patient 7, RSNs 3 and 6, baseline to 52 weeks) of the same compound?
Answer: −0.013

Question: What about the “Change in Correlation Coefficient” value ([2]; Patient 8, RSNs 3 and 6, baseline to 52 weeks) of the same compound?
Answer: −0.058

Question: And the “Change in Correlation Coefficient” value ([2]; Patient 9, RSNs 3 and 6, baseline to 52 weeks)?
Answer: −0.302

Question: And the “Change in Correlation Coefficient” value ([2]; Patient 10, RSNs 3 and 6, baseline to 52 weeks)?
Answer: 0.105

Question: And the “Change in Correlation Coefficient” value ([2]; Patient 11, RSNs 3 and 6, baseline to 52 weeks)?
Answer: 0.035

Question: What about the “connectivity between default mode and medial frontal networks (fMRI)” value ([2]; every subject except Patient 5, first interim analysis) of the same compound?
Answer: enhanced connectivity

Question: What about the “connectivity between RSNs 1, 2 and 3 and RSNs 6, 7 and 8 (fMRI)” value ([2]; patients with sufficient Compound 2 exposure, second interim analysis) of the same compound?
Answer: enhanced connectivity
